According to patent US20140171918A1, “USE OF A NOVEL SU[…]-FREE […] TO DELIVER TE[…] H[…]” (Bioject, Inc., priority 2012, published 2014):

What was measured:
hypogonadal men [1] = experiment: Adverse events, injection site reactions and wetness after needle-free injection; type: in vivo, human
Excerpt: Of the 14 patients 9 recorded symptoms of redness, 5 symptoms of bruising and one an induration. None of these reactions required medical follow up or dissuaded any patient from discontinuing treatment. See section on Preference for additional data on patient preference and comparison of needle-Free injection methods to needle and syringe. FIG. 5 depicts post injection site reactions as a percentage of the total number of injections for 14 patients over a 30 day period.
Wetness at the injection site is believed to be attributed to moisture on the tip of the syringe prior to the injection per recommended technique. Wetness with visible moisture flow at the site of the injection is thought to result from improper injection technique and a lack of fluid pressure in the nozzle because of the technique. Results for wetness varied across all patients. FIG. 7 depicts cumulative wetness results by category as a percentage of total injections.

hypogonadal men [2] = experiment: Visual/verbal analog pain scale after needle-free injection
Experimental: Each subject was given thorough instruction on performing self needle-free injections with the Zetaj et. […] Pharmacokinetic evaluation using testosterone levels were obtained at specified intervals. Secondary endpoints, both objective and subjective, included E2 levels, pain score diaries, and AMS scores obtained before and after one month of treatment. A dose confirmation strategy was conducted to achieve likelihood of valid dose.
From day 60-90, all subjects were verified to have cottonseed vehicle in the commercially available formulation via Watson Pharmaceutical.

hypogonadal men [3] = experiment: Aging Male Score (AMS) questionnaire before and after treatment; type: in vivo, human
Excerpt: AMS scoring was based on a rating of symptom severity ranging from no symptoms with the lowest score of 1 to severe symptoms with a […].

[4] = Pharmacokinetic evaluation using testosterone levels after needle-free (Zetajet) subcutaneous self-injection; type: in vivo, human
Excerpt: The goal of the study is to determine if a needle-free injector can consistently deliver frequent administrations (daily or three times weekly) of testosterone in a safe and effective manner. To answer this specific question, the study was designed to determine the efficacy (defined as testosterone serum levels, wetness, pain, and clinical questionnaire) of the combined product (cross labeled) of needle-free injection of testosterone cypionate hypogonadal men. This includes both objective (testosterone free and total levels) and subjective (pain and clinical questionnaire).
On Jan. 26, 2013, IRBS approved a modification of the CP-445 study. Due to a clear efficacy and patient acceptance at day 30, an extension of the study was requested to follow the fourteen subject's testosterone levels at a less frequent dosing interval and increased dosage. There was no deviation to the protocol as originally designed for day 0-30. Nor was there any deviation to the conduct of the study to day 120. This modification allowed following subjects out to day 120 on a Monday, Wednesday, Friday dosing of 50 mg of testosterone cypionate. Only T levels at day 60 and 120 were assessed.

## C[C@]12CC[C@H]3[C@@H](CCC4=CC(=O)CC[C@@]43C)[C@@H]1CC[C@@H]2OC(=O)CCC1CCCC1 [testosterone cypionate]
Hypogonadal men [1]; 100 mg/ml and 200 mg/ml commercially available formulations
  allergic response or major bruising: No allergic response or major bruising
Hypogonadal men [1]; 14 patients over 30 days
  share of injections resulting in minor redness and bruising: a quarter
Hypogonadal men [1]; entire study (to day 120)
  severe adverse events: No severe adverse events
Hypogonadal men [1]; needle-free injection in hypogonadal men
  tolerability / safety in words: well tolerated
Hypogonadal men [1]; of the 14 patients, 30 days
  patients who recorded an induration: one
  patients who recorded symptoms of bruising: 5
  patients who recorded symptoms of redness: 9
Hypogonadal men [2]; five minutes after injection, scale 0-4, 25 mg daily needle-free injection
  verbal analog pain score, average: 0.54
Hypogonadal men [2]; five minutes after injection, scale 0-10, 25 mg daily needle-free injection in the abdomen
  visual analog pain score, average: 0.4
Hypogonadal men [2]; thirty minutes after injection, scale 0-4, 4 most painful
  verbal analog pain score: 0.26
Hypogonadal men [2]; thirty minutes after injection, scale 0-10, 10 most painful
  visual analog pain score: 0.14
Hypogonadal men [3]; after one month of 25 mg daily, baseline average 50 points, thirteen of fourteen men
  average AMS score after treatment: 25 points
Hypogonadal men [3]; after one month of treatment vs before
  average reduction in bothersome hypogonadal symptoms (AMS score): 50%
[4]; 25 mg daily Zetajet injection, 6 hours to day 30
  course of free and total testosterone levels: consistently rose from 6 hours to day 30
[4]; 25 mg daily Zetajet injection, day 30, four men
  average testosterone level of the men with supraphysiologic levels (above 975.0 ng/dl): 1203 ng/dl
[4]; 25 mg daily, from 8.76 ng/dl to 37.5 ng/dl
  increase of free testosterone levels: over four fold increase
[4]; QODWO 50 mg vs daily 25 mg
  average total testosterone levels of QODWO dosing lower than daily injections: 35%
[4]; QODWO dosing at 50 mg
  increase in testosterone levels: 3 fold
  supraphysiologic levels of testosterone: no men had supraphysiologic levels
[4]; QODWO dosing at 50 mg, men who completed the 120 day study extension
  men with normal testosterone levels: 11 out of 11
[4]; after 25 mg daily injection, baseline average 8.76 ng/dl
  average free testosterone level: 37.5 ng/dL
[4]; at two weeks, 25 mg daily
  men with normal testosterone levels (primary endpoint): 13/14
[4]; daily dosing regimen of 25 mg a day
  increase in average testosterone levels from baseline: over four fold increase
[4]; three formerly supraphysiologic subjects continued on QODWO regimen (50 mg), extended study
  average testosterone level after correction to the normal range: 519 ng/dL
